Laboratory results taken from US5432165A, “Methods for the treatment of infection caused by Hepatitis B virus (HBV)” (priority 1992, dated 1995).
Read-outs that look alike come from different tables or passages of the source. One block for each compound: values may come before it.

Key:
[1] = Stability in an acid environment; type: physicochemical; conditions: such as is found in the human stomach
[2] = cited from earlier work
[3] = target: DNA polymerase enzyme of human hepatitis B virus (Hepatitis B virus genotype D subtype ayw, UniProt P03156); conditions: read-out: concentration inhibiting DNA polymerase activity by 50 percent; cited from earlier work
DNA polymerase enzyme of human hepatitis B virus, sequence (P03156 whole entry): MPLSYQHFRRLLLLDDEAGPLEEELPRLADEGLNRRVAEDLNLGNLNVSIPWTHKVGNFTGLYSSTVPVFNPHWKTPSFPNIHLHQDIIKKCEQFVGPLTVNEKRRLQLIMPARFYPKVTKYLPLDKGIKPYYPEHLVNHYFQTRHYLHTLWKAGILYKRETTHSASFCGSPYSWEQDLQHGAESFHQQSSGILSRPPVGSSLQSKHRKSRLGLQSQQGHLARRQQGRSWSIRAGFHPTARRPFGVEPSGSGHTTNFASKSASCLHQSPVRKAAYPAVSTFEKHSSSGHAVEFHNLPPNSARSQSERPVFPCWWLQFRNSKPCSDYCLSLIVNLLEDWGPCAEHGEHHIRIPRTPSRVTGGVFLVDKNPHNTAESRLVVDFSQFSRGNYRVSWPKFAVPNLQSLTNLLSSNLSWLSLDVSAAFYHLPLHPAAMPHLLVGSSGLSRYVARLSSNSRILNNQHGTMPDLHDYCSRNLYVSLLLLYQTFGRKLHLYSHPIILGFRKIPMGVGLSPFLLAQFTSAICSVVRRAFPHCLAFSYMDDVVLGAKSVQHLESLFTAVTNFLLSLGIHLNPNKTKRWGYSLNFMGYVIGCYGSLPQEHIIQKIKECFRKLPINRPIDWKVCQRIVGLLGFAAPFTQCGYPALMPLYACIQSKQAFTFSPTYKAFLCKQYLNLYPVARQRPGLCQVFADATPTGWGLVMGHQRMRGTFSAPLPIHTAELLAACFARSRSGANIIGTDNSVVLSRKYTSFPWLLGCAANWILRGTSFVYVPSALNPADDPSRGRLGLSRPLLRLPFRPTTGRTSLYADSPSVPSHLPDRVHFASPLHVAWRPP

[4] = tested on: woodchuck hepatitis virus; conditions: cited from earlier work
HSV-1 = conditions: read-out: in vitro ED90; cited from earlier work
[5] = target: DNA polymerase enzyme of woodchuck hepatitis virus (Woodchuck hepatitis B virus, UniProt P03160); conditions: read-out: concentration inhibiting DNA polymerase activity by 50 percent; cited from earlier work
DNA polymerase enzyme of woodchuck hepatitis virus, sequence (P03160 whole entry): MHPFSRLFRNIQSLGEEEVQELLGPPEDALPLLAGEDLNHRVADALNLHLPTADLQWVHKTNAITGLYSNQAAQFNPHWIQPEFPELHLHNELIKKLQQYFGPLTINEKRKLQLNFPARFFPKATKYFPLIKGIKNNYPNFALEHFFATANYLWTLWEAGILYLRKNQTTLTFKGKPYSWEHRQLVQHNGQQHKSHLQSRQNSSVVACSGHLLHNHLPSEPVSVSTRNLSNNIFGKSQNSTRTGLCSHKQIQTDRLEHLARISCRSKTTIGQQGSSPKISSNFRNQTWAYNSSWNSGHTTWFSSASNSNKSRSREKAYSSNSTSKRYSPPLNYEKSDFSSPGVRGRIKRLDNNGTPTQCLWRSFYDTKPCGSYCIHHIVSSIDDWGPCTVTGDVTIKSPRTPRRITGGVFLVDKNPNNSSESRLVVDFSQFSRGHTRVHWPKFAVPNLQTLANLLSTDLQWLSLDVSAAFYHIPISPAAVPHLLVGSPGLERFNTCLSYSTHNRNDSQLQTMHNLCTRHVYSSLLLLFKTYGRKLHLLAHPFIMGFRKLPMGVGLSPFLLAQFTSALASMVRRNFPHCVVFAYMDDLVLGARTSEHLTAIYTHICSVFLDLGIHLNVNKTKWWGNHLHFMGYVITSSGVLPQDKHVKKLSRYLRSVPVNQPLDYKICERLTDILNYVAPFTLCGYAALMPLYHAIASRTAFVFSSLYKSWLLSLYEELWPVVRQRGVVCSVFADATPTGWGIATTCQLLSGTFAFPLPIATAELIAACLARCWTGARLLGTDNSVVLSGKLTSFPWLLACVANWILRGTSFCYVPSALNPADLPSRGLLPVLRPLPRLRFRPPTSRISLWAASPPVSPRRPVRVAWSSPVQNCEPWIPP

CMV = conditions: read-out: in vitro ED90; cited from earlier work
[6] = typical; read-out: cellular toxicity concentration (ID50); cited from earlier work
[7] = Peak and trough plasma levels of FIAU and FAU by HPLC; type: in vivo, human; conditions: in vivo
Description: Additionally at Baseline, archive plasma samples were taken.

hepatitis B virus = conditions: cited from earlier work; for HBV markers after dosing was stopped: chronic HBV patients
[8] = chronic type therapy at HBV DNA suppressive doses

Compound: Nc1nc(=O)n([C@@H]2O[C@H](CO)[C@@H](O)[C@@H]2F)cc1I [FIAC, 1-(2'-deoxy-2'-fluoro-β-D-arabinofuranosyl)-5-iodocytosine]
stability in an acid environment [1]: stable in an acid environment
accumulation in the plasma ([2]; month long TID dosing of FIAC): neither FIAC, FIAU, or their metabolites accumulated in the plasma
absorption following oral administration ([2]; oral FIAC, patients): nearly completely absorbed
conversion of FIAC to FIAU ([2]; oral FIAC, patients): very rapidly converted to FIAU
FIAC in plasma two hours after dosing ([2]; oral FIAC): almost never detected
IC50 [3]: 50 to 100 nM
suppression of viral polymerase and DNA ([4]; FIAC 20 mg/kg-day for 7 days): Rapid, complete and persistent suppression
EC90 (HSV-1): ~50 nM
IC50 [5]: 50 to 100 nM
EC90 (CMV): ~500 nM
CC50 [6]: ~10000 nM

FAU plasma values (rarely exceeded) ([7]; human, po, 1 mg/kg/day): ≤ 0.15 µg/mL
FAU plasma values after the initial dose [7]: almost always undetectable
Compound: O=c1ccn([C@@H]2O[C@H](CO)[C@@H](O)[C@@H]2F)c(=O)[nH]1 [FAU, 1-(2'-deoxy-2'-fluoro-β-D-arabinofuranosyl)uracil]

Compound: Nc1ncnc2c1ncn2[C@@H]1O[C@H](CO)[C@@H](O)[C@@H]1O [ara-A]
HBV markers after dosing was stopped (hepatitis B virus): very rapidly rebounded to baseline levels and above
toxicity on continued administration (hepatitis B virus; [8]): too toxic (persistent and severe neuromuscular pain)

Compound: Nc1ncnc2c1ncn2[C@@H]1O[C@H](COP(=O)(O)O)[C@@H](O)[C@@H]1O [ara-AMP]
HBV markers after dosing was stopped (hepatitis B virus): very rapidly rebounded to baseline levels and above
HBV markers after dosing was stopped (hepatitis B virus; listed as Ara-AMP): rapid rebound of DNA levels to pretreatment levels after 10-28 days of therapy is the norm
toxicity on continued administration (hepatitis B virus; [8]): intolerably toxic
toxicity on continued administration (hepatitis B virus; human, in vivo): too toxic (persistent and severe neuromuscular pain)
suppression of viral DNA ([4]; similar dose given for 14 days): suppressed viral DNA but was followed by a rapid rebound to levels above baseline

Compound: interferon-alpha
patients with major and sustained decreases in HBV DNA (hepatitis B virus; HBeAg positive chronic HBV infection, therapy for months): less than half of patients
patient population in which effective (hepatitis B virus; reported): effective only in non-HIV infected patients with baseline entry serum HBV DNA levels less than 200 pg/ml
